In PubChem BioAssay AID330 (DTP/NCI, 2004):
Several values for one entry are separate records, joined by “and”; a condition that tells them apart may be missing. Identical values can stand only once. Toxic doses and inconclusive results are not listed. The calls were made as follows: active = survival T/C of 150% or more; inactive = T/C below 125% in these data. Peptide text beside a SMILES is read from it.

Tested on: P388 leukemia ip, CD2F1 mice, survival T/C
Assay: NCI In Vivo Anticancer Drug Screen. Data for tumor model P388 Leukemia (intraperitoneal) in CD2F1 (CDF1) mice
Details: endpoint: median survival time, higher = longer survival
Summary of the method: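 Mice carrying the transplanted tumor received test compound or vehicle. Survival was recorded in each group, and the value is the treated-group measurement divided by that of the vehicle-treated control group.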

[1] = dose: 50.0 mg/kg/injection, schedule: Q01DX005 (ip), vehicle: Klucel (hydroxypropylcellulose) (HPC)
[2] = dose: 100.0 mg/kg/injection, schedule: Q01DX005 (ip), vehicle: Klucel (hydroxypropylcellulose) (HPC)
[3] = dose: 200.0 mg/kg/injection, schedule: Q01DX005 (ip), vehicle: Klucel (hydroxypropylcellulose) (HPC)
[4] = dose: 12.5 mg/kg/injection, schedule: Q01DX009 (ip), vehicle: saline with Tween-80
[5] = dose: 50.0 mg/kg/injection, schedule: Q01DX009 (ip), vehicle: saline with Tween-80
[6] = dose: 100.0 mg/kg/injection, schedule: Q01DX009 (ip), vehicle: saline with Tween-80
[7] = dose: 200.0 mg/kg/injection, schedule: Q01DX009 (ip), vehicle: saline with Tween-80
[8] = dose: 25.0 mg/kg/injection, schedule: Q01DX009 (ip), vehicle: saline with Tween-80
[9] = dose: 60.0 mg/kg/injection, schedule: Q01DX005 (ip), vehicle: saline with Tween-80
[10] = dose: 120.0 mg/kg/injection, schedule: Q01DX005 (ip), vehicle: saline with Tween-80
[11] = dose: 240.0 mg/kg/injection, schedule: Q01DX005 (ip), vehicle: saline with Tween-80
[12] = dose: 50.0 mg/kg/injection, schedule: Q01DX005 (ip), vehicle: saline with Tween-80
[13] = dose: 100.0 mg/kg/injection, schedule: Q01DX001 (ip), vehicle: saline with Tween-80
[14] = dose: 200.0 mg/kg/injection, schedule: Q01DX001 (ip), vehicle: saline with Tween-80
[15] = dose: 400.0 mg/kg/injection, schedule: Q01DX001 (ip), vehicle: saline with Tween-80
[16] = dose: 25.0 mg/kg/injection, schedule: Q04DX003 (ip), vehicle: saline with Tween-80
[17] = dose: 50.0 mg/kg/injection, schedule: Q04DX003 (ip), vehicle: saline with Tween-80

Measured: T/C

COc1nc(N)nc2c1CSc1ccccc1-2
inactive: [1] 97 % of control | [2] 97 % of control | [3] 90 % of control

CCCC1CC[N-]CC1.CCCC1CC[N-]CC1.CCCC1CC[N-]CC1.CCCC1CC[N-]CC1.CS(C)=O.CS(C)=O.[Cl-].[Cl-].[Cl-].[Cl-].[Cl][Rh][Cl].[Rh+3]
inactive: dose: 3.13 mg/kg/injection, schedule: Q01DX009 (ip), vehicle: saline 117 % of control | [4] 123 % of control

COc1cccc2c1CCC(=O)C2C (centres undefined)
inactive: [1] 107 % of control | [2] 100 % of control | [3] 104 % of control

C=C(CN(C)C)C(=O)c1ccccc1Cl
inactive: dose: 1.8 mg/kg/injection, schedule: Q01DX005 (ip), vehicle: saline 109 % of control | dose: 3.75 mg/kg/injection, schedule: Q01DX005 (ip), vehicle: saline 106 % of control | dose: 7.5 mg/kg/injection, schedule: Q01DX005 (ip), vehicle: saline 105 % of control and 107 % of control

COC(=O)NC1C(C)OC(OC2C/C=C(/C)C3C=CC4C(OC5CC(OC6CC(OC7CC(O)C(O)C(C)O7)C(OC7CC(O)C(OC)C(C)O7)C(C)O6)C(O)C(C)O5)C(C)CC(C)C4C3(C)/C(O)=C3\C(=O)OC4(CC(C)C(CO)=CC4/C=C\2C)C3=O)CC1(C)[N+](=O)[O-] (centres undefined)
inactive: dose: 7.5 mg/kg/injection, schedule: Q01DX009 (ip), vehicle: saline 106 % of control | dose: 15.0 mg/kg/injection, schedule: Q01DX009 (ip), vehicle: saline 115 % of control and 122 % of control | dose: 30.0 mg/kg/injection, schedule: Q01DX009 (ip), vehicle: saline 121 % of control

Oc1ccc(O)c2c1C1(Cl)C(Cl)=C(Cl)C2(Cl)C1(Cl)Cl
inactive: dose: 100.0 mg/kg/injection, schedule: Q04DX003 (ip), vehicle: other 100 % of control | dose: 200.0 mg/kg/injection, schedule: Q04DX003 (ip), vehicle: other 104 % of control | dose: 400.0 mg/kg/injection, schedule: Q04DX003 (ip), vehicle: other 113 % of control

COC(=O)/C=C(\C(=O)OC)c1ccccc1C(C(=O)OC)c1ccccc1CC(=O)OC (centres undefined)
inactive: [5] 108 % of control | [6] 106 % of control | [7] 108 % of control

O=C1NC(=O)/C(=C/C=C/c2ccccc2)S1
inactive: [8] 102 % of control and 111 % of control | [5] 102 % of control and 116 % of control and 118 % of control | [6] 93 % of control | [7] 123 % of control

CC12C(=O)NC(c3ccncc3)(c3ccccc31)C1C(=O)N(c3ccccc3)C(=O)C12 (centres undefined)
inactive: [9] 96 % of control | [10] 94 % of control | [11] 94 % of control

CCCCC[C@@H]1CC=C[C@@H](NC(=O)OCc2ccccc2)[C@H]1/C=C/C(=O)CCCCC1OCCO1
inactive: dose: 60.0 mg/kg/injection, schedule: Q01DX005 (ip), vehicle: DMSO 101 % of control | dose: 120.0 mg/kg/injection, schedule: Q01DX005 (ip), vehicle: DMSO 93 % of control | dose: 240.0 mg/kg/injection, schedule: Q01DX005 (ip), vehicle: DMSO 98 % of control

NC(Cc1ccccc1)C(=O)NC(CCC(=O)O)C(=O)NC(CCC(=O)O)C(=O)O (stereo not drawn) (H-Phe-Glu-Glu-OH; configuration not given here)
inactive: [1] 103 % of control | [2] 100 % of control | [3] 96 % of control

O=C(Nc1ccccc1F)OCCCl
inactive: [9] 99 % of control | [10] 101 % of control | [11] 93 % of control

COc1cc(C2c3cc(O)c(OC)cc3CC(C(N)=O)C2CO)ccc1O (centres undefined)
inactive: [12] 100 % of control | dose: 100.0 mg/kg/injection, schedule: Q01DX005 (ip), vehicle: saline with Tween-80 100 % of control | dose: 200.0 mg/kg/injection, schedule: Q01DX005 (ip), vehicle: saline with Tween-80 98 % of control

CCOC(=O)C1Cc2c(n(C3CCCCC3)c(=O)n(C)c2=O)OC1c1ccccc1 (centres undefined)
inactive: [1] 100 % of control | [2] 96 % of control | [3] 90 % of control

O=CNc1ccc(/C=C\c2ccnc3ccccc23)cc1
inactive: dose: 3.13 mg/kg/injection, schedule: Q01DX009 (ip), vehicle: saline with Tween-80 109 % of control | dose: 6.25 mg/kg/injection, schedule: Q01DX009 (ip), vehicle: saline with Tween-80 100 % of control | [4] 100 % of control | [8] 91 % of control

O=C1C=CC2(CC(O)OC3=C2C(=O)c2oc4cc(O)c(O)cc4c2C3=O)O1 (centres undefined)
inactive: dose: 10.0 mg/kg/injection, schedule: Q01DX009 (ip), vehicle: Klucel (hydroxypropylcellulose) (HPC) 102 % of control | dose: 20.0 mg/kg/injection, schedule: Q01DX009 (ip), vehicle: Klucel (hydroxypropylcellulose) (HPC) 109 % of control | dose: 40.0 mg/kg/injection, schedule: Q01DX009 (ip), vehicle: Klucel (hydroxypropylcellulose) (HPC) 105 % of control | dose: 80.0 mg/kg/injection, schedule: Q01DX009 (ip), vehicle: Klucel (hydroxypropylcellulose) (HPC) 111 % of control

NC(=O)c1cc([N+](=O)[O-])cc([N+](=O)[O-])c1Cl
inactive: dose: 6.25 mg/kg/injection, schedule: Q01DX009 (ip), vehicle: Klucel (hydroxypropylcellulose) (HPC) 102 % of control

Cc1ccc(S(=O)(=O)CC2(Br)CCc3ccccc3C2=O)cc1 (centres undefined)
inactive: dose: 100.0 mg/kg/injection, schedule: Q04DX003 (ip), vehicle: saline 97 % of control | dose: 200.0 mg/kg/injection, schedule: Q04DX003 (ip), vehicle: saline 91 % of control | dose: 400.0 mg/kg/injection, schedule: Q04DX003 (ip), vehicle: saline 95 % of control

O=C(C(O)C(O)C(O)CO)n1cnc2c1ncn1c(=O)cc(CI)nc21 (centres undefined)
inactive: [13] 105 % of control | [14] 97 % of control | [15] 111 % of control

CC(C)(C)C(=N)N
inactive: dose: 12.5 mg/kg/injection, schedule: Q01DX009 (ip), vehicle: saline 100 % of control | dose: 25.0 mg/kg/injection, schedule: Q01DX009 (ip), vehicle: saline 108 % of control | dose: 50.0 mg/kg/injection, schedule: Q01DX009 (ip), vehicle: saline 102 % of control

CCCCN(CCCC)CCNc1ccc(C)c2sc3ccc(Cl)cc3c(=O)c12
inactive: dose: 12.5 mg/kg/injection, schedule: Q01DX005 (ip), vehicle: saline with Tween-80 88 % of control | dose: 25.0 mg/kg/injection, schedule: Q01DX005 (ip), vehicle: saline with Tween-80 88 % of control | [12] 89 % of control

CC(=O)N=c1ccc2nc3c(cc(N)c4ccccc43)oc-2c1
inactive: dose: 10.0 mg/kg/injection, schedule: Q01DX005 (ip), vehicle: Klucel (hydroxypropylcellulose) (HPC) 98 % of control | dose: 20.0 mg/kg/injection, schedule: Q01DX005 (ip), vehicle: Klucel (hydroxypropylcellulose) (HPC) 100 % of control | dose: 40.0 mg/kg/injection, schedule: Q01DX005 (ip), vehicle: Klucel (hydroxypropylcellulose) (HPC) 98 % of control

CC(=O)OC1CC23COC(=O)C4OC45CCO/C(=C/C/C=C\C(=O)OC4C[C@@H](OC2C=C1C)[C@@]1(CO1)[C@]43C)C5O (some centres undefined)
inactive: dose: 0.32 mg/kg/injection, schedule: Q01DX009 (ip), vehicle: Klucel (hydroxypropylcellulose) (HPC) 100 % of control | dose: 125.0 micrograms/kg/injection, schedule: Q01DX009 (ip), vehicle: Klucel (hydroxypropylcellulose) (HPC) 110 % of control | dose: 250.0 micrograms/kg/injection, schedule: Q01DX009 (ip), vehicle: Klucel (hydroxypropylcellulose) (HPC) 118 % of control
active: dose: 1000.0 micrograms/kg/injection, schedule: Q01DX009 (ip), vehicle: Klucel (hydroxypropylcellulose) (HPC) 152 % of control

Cc1ccccc1Nc1c2ccccc2nc2ccccc12
inactive: dose: 12.5 mg/kg/injection, schedule: Q04DX003 (ip), vehicle: saline with Tween-80 95 % of control | [16] 95 % of control | [17] 104 % of control

NC(=S)N1N=C(c2cccc([N+](=O)[O-])c2)CCC1=O
inactive: [16] 100 % of control | [17] 103 % of control | dose: 100.0 mg/kg/injection, schedule: Q04DX003 (ip), vehicle: saline with Tween-80 100 % of control | dose: 200.0 mg/kg/injection, schedule: Q04DX003 (ip), vehicle: saline with Tween-80 101 % of control

CC(=O)OC1=C(C)C2=C3OC(=O)C(C)=C3CC[C@@]2(C)[C@@H](Cl)[C@@H]1Cl
inactive: dose: 25.0 mg/kg/injection, schedule: Q01DX005 (ip), vehicle: Klucel (hydroxypropylcellulose) (HPC) 104 % of control and 113 % of control | [1] 104 % of control and 108 % of control and 111 % of control | [2] 114 % of control and 117 % of control and 121 % of control | [3] 108 % of control and 119 % of control and 120 % of control

CCOC(=O)N(CCCl)C(=O)C(C)C
inactive: [13] 104 % of control | [14] 100 % of control | [15] 104 % of control
